Reference: PubChem BioAssay (NCI)
“And” between values parts separate entries of the source, which are not always exact repeats. Identical values can stand only once.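 The compound was tested at five concentrations on cells cultured in 96-well plates, with a 48-hour exposure period. The concentration for 50% growth inhibition is given as GI50. TGI: total growth inhibition.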

What was measured:
Experiment in all cases: inhibition of tumour cell growth, NCI panel, 48 h
[1] = test system: DU-145 prostate
[2] = test system: HCT-15 colon
[3] = test system: MALME-3M melanoma
[4] = test system: MDA-MB-231 breast
[5] = test system: NCI-H522 lung
[6] = test system: OVCAR-8 ovarian
[7] = test system: PC-3 prostate
[8] = test system: RXF 393 renal
[9] = test system: SK-MEL-2 melanoma
[10] = test system: SNB-75 CNS

Compound: Clc1ccc2c(NCCNc3ccnc4cc(Cl)ccc34)ccnc2c1
- TGI [1]: 48200 nM
- TGI [2]: 31000 nM
- TGI [3]: > 100000 nM
- TGI [4]: 32200 nM
- TGI [5]: 35200 nM
- TGI [6]: 43100 nM
- TGI [7]: 34500 nM
- TGI [8]: 36100 nM
- TGI [9]: 34400 nM
- TGI [10]: 50300 nM

Compound: COc1ccc(Cl)cc1NC(=O)c1c(NC(=O)C(F)(F)C(F)(F)F)sc2c1CCCCC2
- GI50 [1]: 2720 nM
- TGI [1]: > 100000 nM
- GI50 [3]: 1580 nM
- TGI [3]: 5630 nM
- GI50 [5]: 588 nM
- TGI [5]: 7680 nM
- GI50 [6]: 2020 nM
- TGI [6]: > 100000 nM
- GI50 [7]: 1470 nM
- TGI [7]: 11300 nM
- GI50 [8]: 1730 nM
- TGI [8]: 5280 nM
- GI50 [9]: 1070 nM
- TGI [9]: 5710 nM
- GI50 [10]: 1490 nM
- TGI [10]: 5640 nM

Compound: COc1ccc(CCCC(=O)O)c(C)c1
- TGI [1]: 56600 nM
- TGI [2]: > 100000 nM
- TGI [3]: > 100000 nM
- TGI [4]: > 100000 nM
- TGI [5]: > 100000 nM
- TGI [6]: > 100000 nM
- TGI [7]: > 100000 nM
- TGI [8]: > 100000 nM
- TGI [9]: > 100000 nM

Compound: COc1cccc2c1C(=O)c1c(O)c3c(c(O)c1C2=O)C[C@@](O)(/C(C)=N/NC(=O)c1ccccc1)C[C@@H]3OC1CC(N)C(O)C(C)O1 (stereo partly specified)
- TGI [1]: 903 nM
- TGI [2]: 19900 nM
- TGI [3]: 1300 nM
- TGI [4]: 3140 nM
- TGI [5]: 1100 nM
- TGI [6]: 5960 nM
- TGI [7]: 1750 nM
- TGI [8]: 1280 nM
- TGI [9]: 1410 nM
- TGI [10]: 1970 nM

Compound: COC(=O)c1cc2c3c(cc(O)c2[nH]1)N(C(=O)C1Cc2cc(OC)c(OC)c(OC)c2N1)CC3CCl (stereo unspecified)
- GI50 [1]: < 10 nM
- TGI [1]: 106 nM
- GI50 [2]: < 10 nM
- TGI [2]: 10400 nM
- GI50 [5]: < 10 nM
- TGI [5]: < 10 nM
- GI50 [6]: < 10 nM
- TGI [6]: 14 nM
- GI50 [7]: < 10 nM
- TGI [7]: < 10 nM
- GI50 [9]: < 10 nM
- TGI [9]: < 10 nM

Compound: Nc1nc(N)c2nc(-c3ccco3)cnc2n1
- TGI [2]: > 100000 nM
- TGI [3]: > 100000 nM
- TGI [5]: > 100000 nM
- TGI [6]: > 100000 nM
- TGI [8]: > 100000 nM
- TGI [10]: 80000 nM

Compound: CC[C@@]1(O)C(=O)OCc2c1cc1n(c2=O)Cc2c-1nc1ccccc1c2/C=N\NC(=O)C(N)Cc1cnc[nH]1 (stereo partly specified)
- TGI [1]: > 100000 nM
- TGI [2]: > 100000 nM
- TGI [3]: > 87100 nM
- TGI [4]: > 100000 nM
- TGI [5]: > 19700 nM
- TGI [6]: 16100 nM
- TGI [7]: > 100000 nM
- TGI [8]: 9590 nM
- TGI [9]: > 46500 nM
- TGI [10]: 36500 nM

Compound: COc1cc2cc(C(=O)N3CC(CCl)c4c3cc(N(C)C)c3ccccc43)[nH]c2c(OC)c1OC (stereo unspecified)
- TGI [1]: 492 nM
- TGI [2]: > 41400 nM
- TGI [3]: 97.6 nM
- TGI [4]: > 100000 nM
- TGI [5]: 26.1 nM
- TGI [6]: 20.6 nM
- TGI [7]: 180 nM
- TGI [8]: 33.4 nM
- TGI [9]: < 10 nM
- TGI [10]: 25.2 nM

Compound: CCOC(=O)c1c(C)[nH]c(/C=C2\N=C(c3ccc[nH]3)C=C2OC)c1C
- GI50 [1]: 37.2 nM
- TGI [1]: 1600 nM
- GI50 [2]: < 10 nM
- TGI [2]: 1070 nM
- GI50 [4]: 26.3 nM
- TGI [4]: 1320 nM
- GI50 [6]: 35.8 nM
- TGI [6]: 1610 nM
- GI50 [7]: 44.2 nM
- TGI [7]: 2450 nM

Compound: O=C1C=C(N2CC2)C(=O)C=C1N1CC1
- GI50 [1]: 10.9 nM
- GI50 [2]: 20.7 nM
- TGI [2]: 231 nM and 1210 nM
- GI50 [3]: 49.8 nM
- TGI [3]: 234 nM and 238 nM
- GI50 [4]: 79.2 nM
- GI50 [5]: 8.26 nM
- TGI [5]: 72.7 nM and 144 nM
- TGI [6]: 4310 nM
- GI50 [8]: 2.46 nM
- GI50 [9]: 28.2 nM
- TGI [9]: 60.5 nM and 360 nM
- GI50 [10]: 7.36 nM
